The values below come from patent US20060235222A1, “Indole-derivative modulators of steroid hormone nuclear receptors” (ELI LILLY AND COMPANY, priority 2003, published 2006).

Molecules are shown by their SMILES.

The Ki is the equilibrium dissociation constant of an inhibitor or competing ligand from its target. One may read the melting point as the temperature, or range, at which the solid turns liquid.

Series [1] has as its target T1, human MR (Homo sapiens, UniProt P08235).
T1 construct: The full length human MR gene is cloned from a human kidney or human brain cDNA library; inferred from own knowledge of the pAcHLT vector (N); made in house; host or cells: Sf9 insect cells (baculovirus)
T1 sequence (P08235 1-984): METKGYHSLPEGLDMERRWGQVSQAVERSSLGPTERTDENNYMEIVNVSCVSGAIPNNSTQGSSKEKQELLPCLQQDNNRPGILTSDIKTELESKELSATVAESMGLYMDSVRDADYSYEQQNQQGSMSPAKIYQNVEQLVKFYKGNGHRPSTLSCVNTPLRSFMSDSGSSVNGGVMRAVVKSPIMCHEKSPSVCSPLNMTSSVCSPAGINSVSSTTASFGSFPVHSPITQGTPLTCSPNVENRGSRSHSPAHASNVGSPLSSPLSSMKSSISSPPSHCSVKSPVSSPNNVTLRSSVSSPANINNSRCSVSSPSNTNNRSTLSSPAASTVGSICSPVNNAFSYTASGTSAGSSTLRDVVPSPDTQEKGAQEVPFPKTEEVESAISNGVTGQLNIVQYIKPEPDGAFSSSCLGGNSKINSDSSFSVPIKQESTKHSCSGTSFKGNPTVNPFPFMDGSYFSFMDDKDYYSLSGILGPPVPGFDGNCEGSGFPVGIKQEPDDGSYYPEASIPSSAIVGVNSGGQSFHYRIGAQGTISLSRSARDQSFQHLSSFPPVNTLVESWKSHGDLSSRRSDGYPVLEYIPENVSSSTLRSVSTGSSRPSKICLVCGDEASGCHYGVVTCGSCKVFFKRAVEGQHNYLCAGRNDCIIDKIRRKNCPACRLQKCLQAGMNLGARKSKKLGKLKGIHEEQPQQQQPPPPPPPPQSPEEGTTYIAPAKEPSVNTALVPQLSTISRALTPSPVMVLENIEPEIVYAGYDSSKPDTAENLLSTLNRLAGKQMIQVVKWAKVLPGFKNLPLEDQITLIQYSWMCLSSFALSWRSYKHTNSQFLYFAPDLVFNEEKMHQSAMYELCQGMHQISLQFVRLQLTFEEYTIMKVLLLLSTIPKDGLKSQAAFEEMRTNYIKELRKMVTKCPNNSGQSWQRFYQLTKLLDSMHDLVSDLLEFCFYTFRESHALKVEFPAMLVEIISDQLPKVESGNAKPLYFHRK
As to the kind of experiment: Mineralocorticoid Receptor Binding Assay (Method 1), [3H]-aldosterone competition. As to conditions: 0.5 nM [3H]-aldosterone, human MR expressed in Sf9 cells. The gist of the method:
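Full-length human MR expressed in Sf9 cells via baculovirus; lysate supernatant (about 20-25 μg protein) incubated with 0.5 nM [3H]-aldosterone and test compound for about 16 h at 4° C. Buffer was Tris/molybdate/phosphate/pyrophosphate with 10% glycerol, pH 7.5; filter-bound complex counted by scintillation.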

For series [2], the target named is T2, human GR (glucocorticoid receptor) (Homo sapiens, UniProt P04150).
T2 construct: expressed in transfected cells; host or cells: 293 cells
T2 sequence (P04150 1-777): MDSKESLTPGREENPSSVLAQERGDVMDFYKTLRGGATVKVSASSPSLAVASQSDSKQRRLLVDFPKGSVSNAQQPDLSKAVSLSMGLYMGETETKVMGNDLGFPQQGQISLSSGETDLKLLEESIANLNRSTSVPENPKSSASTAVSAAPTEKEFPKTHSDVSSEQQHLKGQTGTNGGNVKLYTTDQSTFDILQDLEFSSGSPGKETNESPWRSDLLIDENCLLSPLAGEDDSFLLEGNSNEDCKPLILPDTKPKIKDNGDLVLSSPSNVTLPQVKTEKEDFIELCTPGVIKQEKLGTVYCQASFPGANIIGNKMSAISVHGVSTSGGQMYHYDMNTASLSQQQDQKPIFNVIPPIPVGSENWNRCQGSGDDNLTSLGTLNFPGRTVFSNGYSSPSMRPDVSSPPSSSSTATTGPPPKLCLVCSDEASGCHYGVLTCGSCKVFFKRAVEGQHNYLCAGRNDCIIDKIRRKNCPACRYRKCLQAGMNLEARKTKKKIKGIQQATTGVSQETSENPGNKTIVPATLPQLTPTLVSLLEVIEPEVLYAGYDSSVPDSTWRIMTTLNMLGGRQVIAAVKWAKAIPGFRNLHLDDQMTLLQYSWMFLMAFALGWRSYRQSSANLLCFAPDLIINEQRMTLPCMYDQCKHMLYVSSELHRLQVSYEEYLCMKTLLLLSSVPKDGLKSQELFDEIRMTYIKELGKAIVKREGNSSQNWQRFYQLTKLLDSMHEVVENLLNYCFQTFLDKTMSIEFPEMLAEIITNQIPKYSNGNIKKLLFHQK
As to the kind of experiment: Alternative Binding Assay Protocol (Method 2), 293-GR lysate, 3H-dexamethasone competition. Particulars: 0.3 nM 3H-dexamethasone.

Series [3] relates to patients suffering from advanced CHF. Particulars: in combination with standard CHF therapy; cited from earlier work.

`CCC(CC)(c1ccc2ocnc2c1)c1c[nH]c2c(NS(C)(=O)=O)cccc12` [Example 146, N-[3-(1-Benzooxazol-5-yl-1-ethyl-propyl)-1H-indol-7-yl]-methanesulfonamide] displayed a melting point of 132 to 135 °C. For the same molecule, the Ki in series [1] is < 500 nM. Also, the inhibition constant (Ki) in series [2] is < 500 nM.
As to `CCC(CC)(c1ccc2sc(N)nc2c1)c1c[nH]c2c(NS(C)(=O)=O)cccc12` [Example 141, N-{3-[1-(2-Amino-benzothiazol-5-yl)-1-ethyl-propyl]-1H-indol-7-yl}-methanesulfonamide], the melting point is 260 to 263 °C (dec.). For the same molecule, in series [1], the Ki was < 500 nM. In addition, the Ki in series [2] was < 500 nM.
Consider `CCC(CC)(c1ccc2[nH]cnc2c1)c1c[nH]c2c(NS(C)(=O)=O)cccc12` [Example 134, N-{3-[1-(1H-Benzoimidazol-5-yl)-1-ethyl-propyl]-1H-indol-7-yl}-methanesulfonamide], for which the melting point lay within 150 to 165 °C. Further, the inhibition constant (Ki) in series [1] is < 500 nM. Further, the Ki in series [2] was < 500 nM.
`CCC(CC)(c1ccc2nc(NC(C)=O)sc2c1)c1c[nH]c2c(NS(C)(=O)=O)cccc12` [Example 147, N-{6-[1-Ethyl-1-(7-methanesulfonylamino-1H-indol-3-yl)-propyl]-benzothiazol-2-yl}-acetamide] displayed a melting point of 286 to 288 °C. The Ki in series [1] is < 500 nM. In addition, the Ki in series [2] was < 500 nM.
In turn, `CCC(CC)(c1ccc2[nH]nnc2c1)c1c[nH]c2c(NS(C)(=O)=O)cccc12` [Example 153, N-{3-[1-(3H-Benzotriazol-5-yl)-1-ethyl-propyl]-1H-indol-7-yl}-methanesulfonamide] showed a melting point of 165 to 172 °C. In series [1], the Ki is < 500 nM. Moreover, the Ki in series [2] is < 500 nM.
On to `CCC(CC)(c1ccc2ccsc2c1)c1c[nH]c2c(NS(C)(=O)=O)cccc12` [Example 139, N-[3-(1-Benzo[b]thiophen-6-yl-1-ethyl-propyl)-1H-indol-7-yl]-methanesulfonamide], for which the melting point lay within 97 to 107 °C. Moreover, in series [1], the Ki is < 500 nM. Further, the Ki in series [2] is < 500 nM.
Molecule `CCC(CC)(c1ccc2sccc2c1)c1c[nH]c2c(NS(C)(=O)=O)cccc12` [Example 135, N-[3-(1-Benzo[b]thiophen-5-yl-1-ethyl-propyl)-1H-indol-7-yl]-methanesulfonamide] yielded a melting point of 85 to 95 °C. Moreover, the Ki in series [1] is < 500 nM. The inhibitory constant (Ki) in series [2] was < 500 nM.
`CCC(CC)(c1ccc2nc(C)oc2c1)c1c[nH]c2c(NS(C)(=O)=O)cccc12` [Example 136, N-{3-[1-Ethyl-1-(2-methyl-benzooxazol-6-yl)-propyl]-1H-indol-7-yl}-methanesulfonamide] showed a melting point of 98 to 105 °C. Besides, the inhibition constant (Ki) in series [1] is < 500 nM. In series [2], the Ki was < 1000 nM.
As to `CC(=O)S[C@@H]1CC2=CC(=O)CC[C@]2(C)[C@H]2CC[C@@]3(C)[C@@H](CC[C@@]34CCC(=O)O4)[C@H]12` [spironolactone], in series [3], the “reduced cardiac related mortality” value was 30% and the “reduced frequency of hospitalization” value is listed as 35%.
